In PubChem BioAssay AID1259407 (Chemical Carcinogenesis Research Information System (CCRIS), 2018):
“Also recorded” adds a separate entry of the source. The source made the active and inactive calls. No rule for the calls is given here.

Tested on: CCRIS mutagenicity, Ames/micronucleus/aberration tests
Assay: CCRIS mutagenicity studies
[1] = Test System: AMES SALMONELLA TYPHIMURIUM, Strain/Indicator: TA98, Metabolic Activation: NONE, Method: STANDARD PLATE
[2] = Test System: AMES SALMONELLA TYPHIMURIUM, Strain/Indicator: TA98, Metabolic Activation: RAT, LIVER, S-9, AROCLOR 1254, Method: STANDARD PLATE
[3] = Test System: AMES SALMONELLA TYPHIMURIUM, Strain/Indicator: TA100, Metabolic Activation: NONE, Method: STANDARD PLATE
[4] = Test System: AMES SALMONELLA TYPHIMURIUM, Strain/Indicator: TA100, Metabolic Activation: RAT, LIVER, S-9, AROCLOR 1254, Method: STANDARD PLATE
[5] = Test System: AMES SALMONELLA TYPHIMURIUM, Strain/Indicator: TA1535, Metabolic Activation: NONE, Method: STANDARD PLATE
[6] = Test System: AMES SALMONELLA TYPHIMURIUM, Strain/Indicator: TA1535, Metabolic Activation: RAT, LIVER, S-9, AROCLOR 1254, Method: STANDARD PLATE
[7] = Test System: AMES SALMONELLA TYPHIMURIUM, Strain/Indicator: TA1537, Metabolic Activation: NONE, Method: STANDARD PLATE
[8] = Test System: AMES SALMONELLA TYPHIMURIUM, Strain/Indicator: TA1537, Metabolic Activation: RAT, LIVER, S-9, AROCLOR 1254, Method: STANDARD PLATE

CCN(CC)c1ccc(N=Nc2ccc([N+](=O)[O-])cc2)cc1
mutagenic call [1]: inactive; negative
mutagenic call [2]: active; positive
mutagenic call [3]: inactive; negative
mutagenic call [4]: inactive; negative
mutagenic call [5]: inactive; negative
mutagenic call [6]: inactive; negative
mutagenic call [7]: inactive; negative
mutagenic call [8]: inactive; negative
mutagenic call (Test System: CHINESE HAMSTER V-79, Strain/Indicator: V-79 (HGPRT)/6-THIOGUANINE, Metabolic Activation: NONE): inactive; negative
mutagenic call (Test System: CHINESE HAMSTER V-79, Strain/Indicator: V-79 (HGPRT)/6-THIOGUANINE, Metabolic Activation: RAT, LIVER, S-9, KANECLOR 400): inactive; negative
mutagenic call (Test System: UDS RAT HEPATOCYTES, Strain/Indicator: THY INCORP, Metabolic Activation: NONE, Method: AUTORADIOGRAPHY): inactive; negative

Cc1ccc2ccccc2n1
mutagenic call [4]: active; positive
mutagenic call (Test System: AMES SALMONELLA TYPHIMURIUM, Strain/Indicator: TA100, Metabolic Activation: RAT, LIVER, S-9, PHENOBARBITAL AND 5,6-BENZOFLAVONE, Method: PREINCUBATION): active; positive
mutagenic call (Test System: AMES SALMONELLA TYPHIMURIUM, Strain/Indicator: TA100, Metabolic Activation: RAT, LIVER, S-9, PHENOBARBITAL AND 5,6-NAPHTHOFLAVONE, Method: PREINCUBATION): active; positive
mutagenic call (Test System: AMES SALMONELLA TYPHIMURIUM, Strain/Indicator: TA100, Metabolic Activation: RAT, LIVER, S-9, Method: PREINCUBATION): inactive; negative
mutagenic call (Test System: UDS RODENT HEPATOCYTES, Strain/Indicator: THY INCORP (NON-S-PHASE), Metabolic Activation: NONE, Method: AUTORADIOGRAPHY): inactive; negative

C[C@]12CC[C@@H]3c4ccc(O)cc4CC[C@H]3[C@@H]1CC[C@@H]2O
mutagenic call (End Point: IN VITRO CHROMOSOMAL ABERRATIONS, Test System: CHINESE HAMSTER CELL DON (22;XY), Metabolic Activation: NONE): active; positive (ploidy changes)
mutagenic call (End Point: IN VITRO CHROMOSOMAL ABERRATIONS, Test System: CHO CELLS, Metabolic Activation: NONE): active; positive (structural changes)
mutagenic call (End Point: IN VITRO CHROMOSOMAL ABERRATIONS, Test System: HUMAN LYMPHOCYTES, Metabolic Activation: NONE, Method: FISH): active; positive (ploidy changes in chromosomes 1, 9, 16); also recorded: active; positive (ploidy changes in chromosomes 7 and 9)
mutagenic call (End Point: IN VITRO CHROMOSOMAL ABERRATIONS, Test System: HUMAN PERIPHERAL LYMPHOCYTES, Metabolic Activation: RAT, LIVER, S-9, AROCLOR 1254): inactive; negative
mutagenic call (End Point: IN VITRO CHROMOSOMAL ABERRATIONS, Test System: HUMAN PERIPHERAL LYMPHOCYTES, Metabolic Activation: RAT, LIVER, S-9, PHENOBARBITONE): active; positive
mutagenic call (End Point: IN VITRO CHROMOSOMAL ABERRATIONS, Test System: SYRIAN HAMSTER EMBRYO (SHE) CELLS, Metabolic Activation: NONE): active; positive (ploidy changes)
mutagenic call (End Point: IN VITRO MICRONUCLEUS, Test System: HUMAN PERIPHERAL BLOOD LYMPHOCYTES, Metabolic Activation: NONE): active; positive
mutagenic call (End Point: IN VITRO MICRONUCLEUS, Test System: HUMAN PERIPHERAL LYMPHOCYTES, Metabolic Activation: NONE): active; positive
mutagenic call (End Point: IN VIVO MICRONUCLEUS, Test System: BONE MARROW POLYCHROMATIC ERYTHROCYTES, Species: MOUSE, Strain/Sex: B6C3F1/MALE, FEMALE, Route: IP INJECTION): inactive; negative
mutagenic call (End Point: IN VIVO MICRONUCLEUS, Test System: BONE MARROW POLYCHROMATIC ERYTHROCYTES, Species: MOUSE, Strain/Sex: B6C3F1/MALE, Route: IP INJECTION): inactive; negative
mutagenic call (End Point: IN VIVO MICRONUCLEUS, Test System: BONE MARROW POLYCHROMATIC ERYTHROCYTES, Species: MOUSE, Strain/Sex: CBA/MALE, Route: IP): inactive; negative
mutagenic call (End Point: IN VIVO MICRONUCLEUS, Test System: BONE MARROW POLYCHROMATIC ERYTHROCYTES, Species: RAT, Strain/Sex: F344/MALE, Route: IP INJECTION): inactive; negative
mutagenic call (Test System: AMES SALMONELLA TYPHIMURIUM, Strain/Indicator: TA98, Metabolic Activation: MOUSE, LIVER, S-9, Method: STANDARD PLATE): inactive; negative
mutagenic call [1]: inactive; negative
mutagenic call [2]: inactive; negative
mutagenic call (Test System: AMES SALMONELLA TYPHIMURIUM, Strain/Indicator: TA100, Metabolic Activation: MOUSE, LIVER, S-9, Method: STANDARD PLATE): inactive; negative
mutagenic call [3]: inactive; negative
mutagenic call [4]: inactive; negative
mutagenic call (Test System: AMES SALMONELLA TYPHIMURIUM, Strain/Indicator: TA1535, Metabolic Activation: MOUSE, LIVER, S-9, Method: STANDARD PLATE): inactive; negative
mutagenic call [5]: inactive; negative
mutagenic call [6]: inactive; negative
mutagenic call (Test System: AMES SALMONELLA TYPHIMURIUM, Strain/Indicator: TA1537, Metabolic Activation: MOUSE, LIVER, S-9, Method: STANDARD PLATE): inactive; negative
mutagenic call [7]: inactive; negative
mutagenic call [8]: inactive; negative
mutagenic call (Test System: AMES SALMONELLA TYPHIMURIUM, Strain/Indicator: TA1538, Metabolic Activation: MOUSE, LIVER, S-9, Method: STANDARD PLATE): inactive; negative
mutagenic call (Test System: AMES SALMONELLA TYPHIMURIUM, Strain/Indicator: TA1538, Metabolic Activation: NONE, Method: STANDARD PLATE): inactive; negative
mutagenic call (Test System: AMES SALMONELLA TYPHIMURIUM, Strain/Indicator: TA1538, Metabolic Activation: RAT, LIVER, S-9, AROCLOR 1254, Method: STANDARD PLATE): inactive; negative
mutagenic call (Test System: CHINESE HAMSTER V-79, Strain/Indicator: V-79 (HPRT)/6-THIOGUANINE, Metabolic Activation: NONE): inactive; negative
mutagenic call (Test System: CHINESE HAMSTER V-79, Strain/Indicator: V-79 (HPRT)/6-THIOGUANINE, Metabolic Activation: NONE, Method: SUSPENSION/PLATE): active; positive
mutagenic call (Test System: UDS RAT HEPATOCYTES, Strain/Indicator: THY INCORP (18-20 HR), Metabolic Activation: NONE, Method: LIQUID SCINTILLATION COUNTING): inactive; negative

CCOP(=O)(OCC)Oc1cc(C)nc(C(C)C)n1
mutagenic call [1]: inactive; negative
mutagenic call (Test System: AMES SALMONELLA TYPHIMURIUM, Strain/Indicator: TA98, Metabolic Activation: RAT, LIVER, S-9, Method: STANDARD PLATE): inactive; negative
mutagenic call [3]: active; positive
mutagenic call (Test System: AMES SALMONELLA TYPHIMURIUM, Strain/Indicator: TA100, Metabolic Activation: RAT, LIVER, S-9, Method: STANDARD PLATE): inactive; negative

COC(=O)CN(CC(=O)OC)C1C[C@H]1N(CC(=O)OC)CC(=O)OC (stereo not given in full)
mutagenic call (Test System: CHINESE HAMSTER V-79, Strain/Indicator: V-79/OUABAIN, Metabolic Activation: NONE, Method: STANDARD PLATE): active; positive

C[N+](C)(C)CC(=O)O
mutagenic call [3]: inactive; negative
mutagenic call [4]: inactive; negative

Nc1c[n+](N2CCOCC2)no1
mutagenic call (Test System: E. COLI, Strain/Indicator: WP2 UVRA (PKM101), Metabolic Activation: NONE, Method: STANDARD PLATE): inactive; negative
mutagenic call (Test System: E. COLI, Strain/Indicator: WP2 UVRA/OXYR (PKM101), Metabolic Activation: NONE, Method: STANDARD PLATE): active; positive
